# Results reported in ChEMBL document CHEMBL5352409, “Design, synthesis, and pharmacological evaluation of 2-(1-(1,3,4-thiadiazol-2-yl)piperidin-4-yl)ethan-1-ol analogs as novel glutaminase 1 inhibitors” (Eur J Med Chem, 2022).
# Tests used:
# [1] = molecular target: T1, Glutaminase kidney isoform, mitochondrial (Homo sapiens, UniProt O94925); assay: Inhibition of GLS1 (unknown origin)
# T1 sequence (O94925 whole entry): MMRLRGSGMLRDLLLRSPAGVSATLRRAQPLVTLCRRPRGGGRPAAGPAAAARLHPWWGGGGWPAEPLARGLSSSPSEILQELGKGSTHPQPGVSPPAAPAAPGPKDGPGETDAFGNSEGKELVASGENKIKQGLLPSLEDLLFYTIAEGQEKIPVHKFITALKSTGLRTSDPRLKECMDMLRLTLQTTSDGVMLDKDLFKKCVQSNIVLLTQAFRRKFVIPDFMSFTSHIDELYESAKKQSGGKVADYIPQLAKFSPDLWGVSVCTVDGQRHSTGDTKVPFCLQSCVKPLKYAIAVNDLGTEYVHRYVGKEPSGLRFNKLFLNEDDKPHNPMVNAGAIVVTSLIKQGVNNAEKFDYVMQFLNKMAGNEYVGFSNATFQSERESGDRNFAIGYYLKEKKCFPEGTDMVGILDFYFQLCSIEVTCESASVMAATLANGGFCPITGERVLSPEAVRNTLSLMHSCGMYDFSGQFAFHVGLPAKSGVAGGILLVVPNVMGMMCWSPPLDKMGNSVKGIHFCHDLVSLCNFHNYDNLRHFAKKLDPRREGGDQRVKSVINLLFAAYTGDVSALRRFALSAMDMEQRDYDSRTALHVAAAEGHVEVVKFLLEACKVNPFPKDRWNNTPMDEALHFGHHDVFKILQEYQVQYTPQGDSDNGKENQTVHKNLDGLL
# [2] = tested on: A549; assay: Induction of apoptosis in human A549 cells assessed as early apoptotic cells at 1 uM incubated for 48 hrs by annexin V-FITC and propidium iodide based flow cytometry analysis (Rvb =12.289%); assay type: functional
# [3] = tested on: A549; assay: Induction of cell cycle arrest in human A549 cells assessed as accumulation of cells at G0/G1 phase at 50 nM incubated for 48 hrs by propidium iodide staining based flow cytometry analysis (Rvb=61.61%); assay type: functional
# [4] = tested on: A549; assay: Induction of cell cycle arrest in human A549 cells assessed as accumulation of cells at G2/M phase at 50 nM incubated for 48 hrs by propidium iodide staining based flow cytometry analysis (Rvb=23.88%); assay type: functional
# [5] = tested on: A549; assay: Inhibition of glutaminase in human A549 cells assessed as ratio of glutamine to glutamate level (Rv b= 0.45 +/- 0.011); assay type: cell-based
# [6] = tested on: HCT-116; assay: Induction of intracellular ROS production in human HCT-116 cells by DCFH-DA staining based fluorescence microscopic analysis; assay type: functional, cell-based; settings: dose 1-10 µM
# [7] = Cmax in rat at 3 mg/kg, iv; assay type: ADME, organism-based; design: dose 3 mg/kg, route iv; settings: in vivo
# [8] = tested on: A549; assay: Induction of apoptosis in human A549 cells assessed as late apoptotic cells at 10 uM incubated for 48 hrs by annexin V-FITC and propidium iodide based flow cytometry analysis (Rvb =9.696%); assay type: functional
# [9] = tested on: A549; assay: Induction of cell cycle arrest in human A549 cells assessed as accumulation of cells at G0/G1 phase at 200 nM incubated for 48 hrs by propidium iodide staining based flow cytometry analysis (Rvb=61.61%); assay type: functional
# [10] = tested on: A549; assay: Induction of cell cycle arrest in human A549 cells assessed as accumulation of cells at S phase at 800 nM incubated for 48 hrs by propidium iodide staining based flow cytometry analysis (Rvb=14.51%); assay type: functional
# [11] = tested on: A549; assay: Induction of apoptosis in human A549 cells assessed as late apoptotic cells at 5 uM incubated for 48 hrs by annexin V-FITC and propidium iodide based flow cytometry analysis (Rvb =9.696%); assay type: functional
# [12] = organism: Homo sapiens; assay: Selectivity ratio of IC50 for GLS2 (unknown origin) to IC50 for GLS1 (unknown origin)
# [13] = Terminal half life in rat at 3 mg/kg, iv; assay type: ADME, organism-based; settings: in vivo, read-out: beta t1/2 (converted)
# [14] = tested on: A549; assay: Induction of apoptosis in human A549 cells assessed as late apoptotic cells at 1 uM incubated for 48 hrs by annexin V-FITC and propidium iodide based flow cytometry analysis (Rvb =9.696%); assay type: functional
# [15] = tested on: A549; assay: Induction of cell cycle arrest in human A549 cells assessed as accumulation of cells at G2/M phase at 800 nM incubated for 48 hrs by propidium iodide staining based flow cytometry analysis (Rvb=23.88%); assay type: functional
# [16] = tested on: HCT-116; assay: Antitumor activity against human HCT-116 cells xenografted in mouse model assessed as tumor growth inhibition at 100 mg/kg once daily via oral gavage administered for 28 days relative to control; assay type: functional; design: scale not given: the % may be the effect or the level left; settings: time 28 day
# [17] = tested on: A549; assay: Induction of cell cycle arrest in human A549 cells assessed as accumulation of cells at S phase at 200 nM incubated for 48 hrs by propidium iodide staining based flow cytometry analysis (Rvb=14.51%); assay type: functional
# [18] = Cmax in rat at 3 mg/kg, po; assay type: ADME, organism-based; design: dose 3 mg/kg, route po; settings: in vivo
# [19] = molecular target: T2, Glutaminase liver isoform, mitochondrial (Homo sapiens, UniProt Q9UI32); assay: Inhibition of GLS2 (unknown origin)
# T2 sequence (Q9UI32 whole entry): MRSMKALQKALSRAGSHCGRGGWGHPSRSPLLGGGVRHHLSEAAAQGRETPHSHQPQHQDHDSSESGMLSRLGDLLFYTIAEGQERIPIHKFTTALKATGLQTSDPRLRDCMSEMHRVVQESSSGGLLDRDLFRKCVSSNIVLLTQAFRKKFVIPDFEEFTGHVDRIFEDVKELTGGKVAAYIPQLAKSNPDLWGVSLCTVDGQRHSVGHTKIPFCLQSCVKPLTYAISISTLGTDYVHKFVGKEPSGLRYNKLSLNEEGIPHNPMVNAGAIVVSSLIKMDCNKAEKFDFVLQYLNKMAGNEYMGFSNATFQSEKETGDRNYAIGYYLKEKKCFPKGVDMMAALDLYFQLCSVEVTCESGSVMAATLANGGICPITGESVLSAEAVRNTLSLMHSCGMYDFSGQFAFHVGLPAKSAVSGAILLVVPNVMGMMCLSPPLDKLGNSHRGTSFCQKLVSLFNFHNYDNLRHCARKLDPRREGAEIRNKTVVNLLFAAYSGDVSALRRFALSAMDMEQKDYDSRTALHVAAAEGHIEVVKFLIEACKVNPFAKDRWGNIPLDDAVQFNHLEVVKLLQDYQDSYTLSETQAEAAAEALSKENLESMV
# [20] = tested on: A549; assay: Induction of apoptosis in human A549 cells assessed as early apoptotic cells at 5 uM incubated for 48 hrs by annexin V-FITC and propidium iodide based flow cytometry analysis (Rvb =12.289%); assay type: functional
# [21] = tested on: A549; assay: Antitumor activity against human A549 cells xenografted in mouse model assessed as tumor growth inhibition at 100 mg/kg once daily via oral gavage administered for 28 days relative to control; assay type: functional; design: scale not given: the % may be the effect or the level left; settings: time 28 day
# [22] = tested on: HCT-116; assay: cells; settings: Homo sapiens
# [23] = Clearance in rat at 3 mg/kg, po; assay type: ADME, organism-based; settings: in vivo
# [24] = Clearance in rat at 3 mg/kg, iv; assay type: ADME, organism-based; settings: in vivo
# [25] = Oral bioavailability in rat at 3 mg/kg; assay type: ADME, organism-based; settings: in vivo
# [26] = tested on: A549; assay: Induction of cell cycle arrest in human A549 cells assessed as accumulation of cells at S phase at 400 nM incubated for 48 hrs by propidium iodide staining based flow cytometry analysis (Rvb=14.51%); assay type: functional
smiles,measurement,setting,value
CCCCCCN1CCC(CNC(=O)c2cccc(COCCC3CCN(c4nnc(NC(=O)Cc5ccccc5)s4)CC3)c2)CC1,IC50,[1],68 nM
same,Activity,[2],14.845%
same,Activity,[3],62.73%
same,Activity,[4],24.1%
same,Ratio,[5],1.32
same,Activity,[6],Dose-Dependent Effect
same,Cmax,[7],699 ng/mL
same,Activity,[8],68.08%
same,Activity,[9],66.93%
same,Activity,[10],11.77%
same,Activity,[11],16.368%
same,Ratio IC50,[12],> 100
same,half-life,[13],9.9 h
same,Activity,[14],7.018%
same,Activity,[15],19.67%
same,Activity,[16],42%
same,Activity,[17],13.34%
same,Cmax,[18],41.3 ng/mL
same,IC50,[19],> 15000 nM
same,Activity,[20],20.673%
same,Activity,[21],40.9%
same,IC50,[22],420 nM
same,CL,[23],557 mL/min/kg
same,CL,[24],102 mL/min/kg
same,F,[25],12.4%
same,Activity,[26],13.76%
